Test results: patent US20060239999A1, “Preventive and/or therapeutic drugs for asthma” (priority 2002, published 2006)

Columns and labels:
GPR4 = target: T1, GPR4 (Homo sapiens, UniProt P46093); test: Antagonistic action on GPR4 (luciferase reporter in GPR4 assay cells induced by 17β-estradiol); assay type: cell-based; conditions: 10 nmol/L 17β-estradiol, 6 hours, luciferase luminescence
T1 construct: expressed in transfected cells; host or cells: KJMGER8 (Namalwa KJM-1 human B-cell line stably expressing Gal4-ER), co-transfected with pAGal9-GPR4 and the CRE-luciferase reporter pACREpluc
T1 sequence (P46093 whole entry, the tested form may be a part): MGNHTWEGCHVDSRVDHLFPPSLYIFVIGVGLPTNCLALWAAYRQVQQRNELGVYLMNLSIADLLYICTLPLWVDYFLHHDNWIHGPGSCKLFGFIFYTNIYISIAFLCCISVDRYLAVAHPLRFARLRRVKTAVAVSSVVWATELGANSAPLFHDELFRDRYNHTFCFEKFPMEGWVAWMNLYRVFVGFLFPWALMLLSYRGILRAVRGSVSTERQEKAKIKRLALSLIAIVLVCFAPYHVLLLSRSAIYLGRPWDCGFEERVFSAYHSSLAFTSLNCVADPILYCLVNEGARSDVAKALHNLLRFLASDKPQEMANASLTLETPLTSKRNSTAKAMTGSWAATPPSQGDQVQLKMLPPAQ
Method: Cells for GPR4 assay prepared in Referential Example 61 (said assay cells express GPR4 by stimulation with 17β-estradiol) were seeded on white plates at the rate of 10^5 cells/well, and a solution where 17β-estradiol (manufactured by Sigma) was diluted with a medium so as to make 10 nmol/L in the reaction solution and test compounds were added to the plate and the mixture was incubated at 37° C. for 6 hours in a 5% CO2 incubator. After that, a Steady Glo Luciferase Assay System (manufactured by Promega) solution was added to stop the reaction and the amount of luminescence during one second was measured using a Top Count (Packard, Meriden, Conn., U.S.
Activity of the each of test compounds (antagonistic action) was expressed by an inhibition rate calculated on the basis of counts per second in the presence or absence of 17β-estradiol as shown by the following formula. IC50 value was calculated from the inhibition rate by a linear approximate analysis of the Logit-Log conversion method.
In the formula, A, B and C each have the following meaning, respectively.
A: counts per second when 17β-estradiol and the test compound were added
B: counts per second when neither 17β-estradiol nor the test compound was added
C: counts per second when only 17β-estradiol was added
Inhibition Rate (%) [1−{(A−B)/(C−B)}]×100
1 μg of mRNA derived from human lung (manufactured by Clontech) was used and a single-stranded cDNA was synthesized using a SUPERSCRIPT First-Stranded Synthesis System for RT-PCR (manufactured by Gibco). GPR4 cDNA was prepared by PCR using a solution (5 μl) where said single-stranded cDNA was diluted with water to an extent of 250-fold as a template and synthetic DNA having nucleotide sequences represented by SEQ ID NO: 7 and NO: 8 as a GPR4 gene-specific primer. Sequence of the GPR4 gene-specific primer was designed on the basis of sequence information of GPR4 gene (GenBank Accession No. U21051). With regard to an enzyme, PfuTurbo DNA Polymerase (manufactured by Stratagene) was used. With regard to a buffer for conducting the PCR, a buffer of 10-fold concentration attached to the enzyme was used. The PCR was conducted by treating at 95° C. for 5 minutes and conducting 30 cycles of reaction each comprising at 94° C. for 1 minute, at 60° C. for 1 minute and at 72° C. for 1 minute using a thermal cycler DNA engine (manufactured by MJ Research).
2 μg of plasmid pAGal9-GPR4 with inducible expression of GPR4 and 2 μg of reporter plasmid pACREpluc were co-transferred into 6×10^6 cell of KJMGER8 by the above-mentioned electroporation. The transformants were suspended in 8 ml of an RPMI 1640-ITPSG medium and cultured in a CO2 incubator at 37° C. for 24 hours. After the cultivation, blasticidin S (2.0 μg/ml), hygromycin B (300 μg/ml) and geneticin (500 μg/ml) were added and cultivation was carried-out for 14 days more, and stable transformants (called GPR4 assay cells) were obtained. The transformants were subcultured in an RPMI 1640-ITPSG medium containing blasticidin S (2.0 μg/ml), hygromycin B (300 μg/ml) and geneticin (500 μg/ml).

BALB/c male mice [1] = test: Suppressive effect on antigen-induced bronchoconstriction (airway resistance penh); assay type: in vivo; conditions: for AUC0-30min of the bronchoconstriction: ovalbumin-sensitized mice, mean value±standard error
Method: (§1) Suspention prepared by mixing of 50 μg of ovalbumin and 1 mg of aluminum hydroxide in a physiological saline solution (Otsuka Physiological Saline; manufactured by Otsuka. Pharmaceutical) was intraperitoneally administered to BALB/c male mice (7 weeks age) for two times with an interval of one week to sensitize and, after 14, 18 and 22 days from the final sensitization, 1% solution of ovalbumin in a physiological saline solution or a physiological saline solution (a negative control group) was inhaled for 30 minutes respectively to induce an antigen-antibody reaction. In the case of measurement of bronchoconstriction, compound 1 was suspended in a 0.5% aqueous solution of methylcellulose (solvent) and, 1 hour before inhalation of antigen after 14 days from the final sensitization 100 mg/kg of the suspention was orally administered or, 5 minutes before that, 30 mg/kg was intraperitoneally administered. In the case of measurement of airway hyperreactivity or eosinophil infiltration in airway, compound 1 was suspended as mentioned above and, after 14, 18 and 22 days from the final sensitization, 100 mg/kg of the suspention was orally administered 1 hour before and 6 hours after inhalation of each antigen. As a reference drug, prednisolone which is a steroid used for the treatment of asthma was orally administered at a dose of 30 mg/kg (as a solution being suspended in 0.5% aqueous solution of methylcellulose) once, 1 hour before inhalation of each antigen after 14, 18 and 22 days from the final sensitization. In a positive control group, the solvent was administered instead of a suspension of a test compound. (In the case of measurement of bronchoconstriction, the solvent was administered once, 1 hour before inhalation of antigen after 14 days from the final sensitization as for oral administration, or the solvent was administered once 30 minutes before inhalation of antigen after 14 days from the final sensitization as for intraperitoneal administration. In the case of measurement of airway hyperreactivity and eosinophil infiltration in airway, the solvent was administered 1 hour before and 6 hours after inhalation of each antigen after 14, 18 and 22 days from the final sensitization.)
(§2) With regard to the bronchoconstriction, airway resistance (penh) was evaluated by a measuring apparatus for respiration function of mice (BioSystems XA; Buxco Electronics, Inc., Sharon, Conn., U.S.A.) for 30 minutes from immediately after inhalation of antigen after 14 days from the final sensitization and evaluation was conducted by calculating the area under curve during the 30 minutes (AUC0-30 min). Further, after 24 hours from final inhalation of antigen, airway hyperreactivity and eosinophil infiltration in bronchoalveolar lavage fluid were evaluated.

BALB/c male mice [2] = test: Suppressive effect on antigen-induced airway hyperreactivity (methacholine inhalation); assay type: in vivo; conditions: for airway hyperreactivity suppressed as compared with the positive control group: compound 1 100 mg/kg orally, prednisolone 30 mg/kg orally; for AUC of airway hyperreactivity: methacholine 1.5 to 25 mg/ml, compound 1 100 mg/kg orally 1 hour before and 6 hours after each antigen, prednisolone 30 mg/kg orally once before each antigen, mean value±standard error
Method: as §1, with “(In the case of measurement of bronchoconstriction, the solvent was administered once, 1 hour before inhalation of antigen after 14 days from the final sensitization as for oral administration, or the solvent was administered once 30 minutes before inhalation of antigen after 14 days from the final sensitization as for intraperitoneal administration. In the case of measurement of airway hyperreactivity and eosinophil infiltration in airway, the solvent was administered 1 hour before and 6 hours after inhalation of each antigen after 14, 18 and 22 days from the final sensitization.)” left out
as §2
(§3) With regard to eosinophil filtration, total cell numbers in the bronchoalveolar lavage fluid were measured by an automatic measuring apparatus for blood cell count (Celltac α MEK-6158; Nippon Koden, Tokyo), then the smears were prepared by Cytospin 3 (Shandon, Inc., Pittsburgh, Pa., U.S.A.) and evaluation was conducted by a morphological classification under a microscope. Eosinophil numbers were calculated by multiplying the total cell numbers by percentage of eosinophil cells. […]

BALB/c male mice [3] = test: Suppressive effect on antigen-induced eosinophil infiltration in airway (bronchoalveolar lavage fluid); assay type: in vivo; conditions: for Eosinophil numbers in bronchoalveolar lavage fluid: 24 hours after final antigen inhalation, compound 1 100 mg/kg orally 1 hour before and 6 hours after each antigen, prednisolone 30 mg/kg orally once before each antigen; for eosinophil numbers decreased as compared with the positive control group: compound 1 100 mg/kg orally, prednisolone 30 mg/kg orally
Method: as §1, with “(In the case of measurement of bronchoconstriction, the solvent was administered once, 1 hour before inhalation of antigen after 14 days from the final sensitization as for oral administration, or the solvent was administered once 30 minutes before inhalation of antigen after 14 days from the final sensitization as for intraperitoneal administration. In the case of measurement of airway hyperreactivity and eosinophil infiltration in airway, the solvent was administered 1 hour before and 6 hours after inhalation of each antigen after 14, 18 and 22 days from the final sensitization.)” left out
as §2, §3

| SMILES | IC50 (GPR4) [nM] | airway hyperreactivity suppressed as compared with the positive control group (BALB/c male mice [2]) [%] | AUC of airway hyperreactivity (BALB/c male mice [2]) | Eosinophil numbers in bronchoalveolar lavage fluid (BALB/c male mice [3]) | eosinophil numbers decreased as compared with the positive control group (BALB/c male mice [3]) [%] | other results |
| --- | --- | --- | --- | --- | --- | --- |
| CCc1nc2c(C)cc(C)nc2n1Cc1ccc2c(c1)CCc1cc(CN3CCN(C)CC3)ccc1N2 [Compound 1, 2-(2-Ethyl-5,7-dimethyl-3H-imidazo[4,5-b]pyridin-3-ylmethyl)-8-(4-methylpiperazin-1-ylmethyl)-10,11-dihydro-5H-dibenz[b,f]azepine] | 4 | 60 | 243.23±48.7 | 0.92±0.26 ×10^5 per mouse | 67 | bronchoconstriction suppressed as compared with the positive control group (BALB/c male mice [1]; 30 mg/kg intraperitoneally): 105%; bronchoconstriction suppressed as compared with the positive control group (BALB/c male mice [1]; 100 mg/kg orally): 44%; AUC0-30min of the bronchoconstriction (BALB/c male mice [1]; 30 mg/kg intraperitoneally before antigen inhalation): 14.60±0.46; AUC0-30min of the bronchoconstriction (BALB/c male mice [1]; 100 mg/kg orally 1 hour before antigen inhalation): 16.85±0.84 |
| CCc1nc2c(C)cc(C)nc2n1Cc1ccc2c(c1)CCc1cc(CN3CC=CCC3)ccc1N2 [Compound 2, 2-(2-Ethyl-5,7-dimethyl-3H-imidazo[4,5-b]pyridin-3-ylmethyl)-8-(1,2,5,6-tetrahydropyridin-1-ylmethyl)-10,11-dihydro-5H-dibenz[b,f]azepine] | 3.2 | – | – | – | – | – |
| CCc1nc2c(C)cc(C)nc2n1Cc1ccc2c(c1)CCc1cc(CN3CCCC3)ccc1N2 [Compound 3, 2-(2-Ethyl-5,7-dimethyl-3H-imidazo[4,5-b]pyridin-3-ylmethyl)-8-(pyrrolidin-1-ylmethyl)-10,11-dihydro-5H-dibenz[b,f]azepine] | 2.3 | – | – | – | – | – |
| CCc1nc2c(C)cc(C)nc2n1Cc1ccc2c(c1)CCc1cc(CN3CCOCC3)ccc1N2 [Compound 4, 2-(2-Ethyl-5,7-dimethyl-3H-imidazo[4,5-b]pyridin-3-ylmethyl)-8-morpholinomethyl-10,11-dihydro-5H-dibenz[b,f]a zepine] | 5.8 | – | – | – | – | – |
| CCc1nc2c(C)cc(C)nc2n1Cc1ccc2c(c1)CCc1cc(CN3CC(C)CC(C)C3)ccc1N2 (centres unmarked) [Compound 5] | 14 | – | – | – | – | – |
| C[C@]12C=CC(=O)C=C1CC[C@@H]1[C@@H]2[C@@H](O)C[C@@]2(C)[C@H]1CC[C@]2(O)C(=O)CO [prednisolone, reference compound] | – | 43 | 269.12±46.7 | 0.76±0.25 ×10^5 per mouse | 73 | – |
